Experimental data reported in patent US20250041387A1, “POLYPEPTIDE SEQUENCE OF KDM6B AND APPLICATION OF KDM6B IN REGULATING AND CONTROLLING FUNCTION OF MESENCHYMAL STEM CELL” (BEIJING STOMATOLOGICAL HOSPITAL, CAPITAL MEDICAL UNIVERSITY, priority 2021, published 2025).
“And” between values parts separate entries of the source, which are not always exact repeats. Identical values can stand only once.

Assays:
[1] = test system: minipig periodontitis model with bone defect; assay: Minipig periodontitis model, new bone volume by CBCT three-dimensional reconstruction; format: in vivo, Wuzhishan minipigs; settings: week 12 after injection, 60 μl per side; individual sides; FIG. 9; listed as 114 peptide
Text: Method: An experimental minipig periodontitis model was established by creating bone defect and ligating silk threads. Specifically, minipigs were conventionally anaesthetized, and extraorally disinfected. The mandibular first permanent molar of the minipig was selected as the experimental tooth, which was subjected to intra-sulcal incision and vertical incision. The mucoperiosteal flap was opened, the mesia-buccal root of the mandibular first permanent molar of the minipig was exposed by bone removal, and a bone defect with a size of 3 mm×5 mm×7 mm was created. That is, 3 mm×5 mm×7 mm of the mesial proximal alveolar bone was removed, and the mesiobuccal root buccal bone plate and distal alveolar bone (3 mm×5 mm, the gingival depth was level with the mesial proximal surface) were removed. The suture in situ was performed. The experimental tooth neck was ligated with silk threads. […]
Drug injection treatment was performed 4 weeks after the modeling operation. The effect of bioactive polypeptide 114 on the regeneration and repair capacity of defected tissues mediated by stem cells in minipigs of periodontitis was assessed by comparing the clinical indicators and imaging examination after modeling (−4 w), 4 weeks after modeling without drug injection (0 w) and 3 months after drug treatment (12 w). […]

[2] = test system: minipig periodontitis model with bone defect; assay: Minipig periodontitis model, clinical indicators (PD, AL, GR) and intraoral observation; format: in vivo, Wuzhishan minipigs; set-up: attachment loss (AL) / gingival recession (GR): unit not given here; settings: for attachment loss (AL) / gingival recession (GR) / probing depth (PD): individual sides
Text: Method: An experimental minipig periodontitis model was established by creating bone defect and ligating silk threads. Specifically, minipigs were conventionally anaesthetized, and extraorally disinfected. The mandibular first permanent molar of the minipig was selected as the experimental tooth, which was subjected to intra-sulcal incision and vertical incision. The mucoperiosteal flap was opened, the mesia-buccal root of the mandibular first permanent molar of the minipig was exposed by bone removal, and a bone defect with a size of 3 mm×5 mm×7 mm was created. That is, 3 mm×5 mm×7 mm of the mesial proximal alveolar bone was removed, and the mesiobuccal root buccal bone plate and distal alveolar bone (3 mm×5 mm, the gingival depth was level with the mesial proximal surface) were removed. The suture in situ was performed. The experimental tooth neck was ligated with silk threads. […] The successful establishment of periodontal bone defect model was verified by CT imaging and clinical examination.
12 Wuzhishan minipigs were used to establish periodontitis model, with a total of 24 sides, which were randomly divided into 3 groups. Each side was injected with a drug at an amount of 60 μl. Group 1: flap surgery with scraping+injection of sterile saline after modeling (untreated control group); group 2: flap surgery with scraping+injection of control polypeptide after modeling (control group); group 3: flap surgery with scraping+injection of bioactive polypeptide 114 after modeling (experimental group).
Drug injection treatment was performed 4 weeks after the modeling operation. The effect of bioactive polypeptide 114 on the regeneration and repair capacity of defected tissues mediated by stem cells in minipigs of periodontitis was assessed by comparing the clinical indicators and imaging examination after modeling (−4 w), 4 weeks after modeling without drug injection (0 w) and 3 months after drug treatment (12 w).
Clinical indicators (PD, AL and GR) detection and CT imaging were performed before the experiment, after modeling (−4 w) and 3 months after treatment (12 w).
Periodontal probing depth (PD): The depth of the periodontal pocket on the mesiobuccal side of the tooth was recorded at a probing pressure of 20-25 g.
Gingival recession (GR): The distance from the cemento-enamel junction to the gingival margin was measured using a periodontal probe. If there was gingival recession, the cementoenamel junction was exposed, and the gingival margin was located at the root of the cementoenamel junction, then the distance between the two was recorded as a positive value; if there was no gingival recession, the gingival margin was located at the crown of the cementoenamel junction, then the distance between the two was recorded as a negative value.
Attachment loss (AL): The degree of attachment loss was determined by subtracting GR from the periodontal pocket depth. If the two numbers were subtracted to zero, or the cementoenamel junction cannot be detected, it means there was no attachment loss. If the gingival recession caused the gingival margin to locate at the root of the cementoenamel junction, the two numbers were added to obtain the degree of the attachment loss. • 2.1 Probing depth (PD) was shown in Table 17 and FIG. 10.

[3] = test system: defected palatal mucosa of mice; assay: Palatal mucosa defect in mice; format: in vivo, Balb/c mice; settings: for area of unhealed defected palatal mucosa: individual mice, FIG. 16
[4] = test system: defected dorsal skin of mice; assay: Dorsal full-thickness skin defect in mice; format: in vivo, Balb/c mice; set-up: area of the defect region (dorsal skin): unit not given here; settings: for area of the defect region (dorsal skin) / Healing rate (dorsal skin defect): individual mice; for Healing rate (dorsal skin defect): FIG. 18
Protocol: Fifteen 8-month-old male Balb/c mice were randomly divided into three groups: PBS group, control group and 114 group, with five mice in each group.
Before the establishment of the defect model, the mice were anaesthetized by injection of 4% chloral hydrate at 0.2 ml/20 g, and the skin was prepared. A circular full-thickness skin defect with a diameter of 6 mm on the back of the mice was created using a skin punch. On the day of the defect creation, the third day, the seventh day, the tenth day, the fourteenth day, the seventeenth day, and the twenty-first day after the defect creation, an equal amount of 100 μl of PBS, 10 μl/ml control peptide, and 10 μl/ml 114 peptide was separately injected at four equidistant sites at 2 mm from the edge of the defect.
The defect region was photographed before each injection, and the area of the defect region was calculated by using Image-Pro plus software. The healing rate was calculated as: healing rate=(area of the defect region on day 0-area of the defect region on day 14/21)/area of the defect region on day 0.

[5] = test system: OVX mouse of osteoporosis model; assay: OVX mouse osteoporosis model, micro-CT of distal femur; format: in vivo, C57BL/6 mice; settings: OVX mice, 10 mg/kg intraperitoneally for 3 months from 6 weeks after ovary removal, individual mice, FIG. 19B, listed as 114 peptide
Text: Twenty five 3-month-old C57BL/6 mice were purchased from Vital River and randomly divided into sham operation group, OVX group, PBS group, control peptide group and 114 peptide group, with five mice in each group. The osteoporosis model was established by removing bilateral ovaries in OVX, PBS, control peptide and 114 peptide groups. In the sham operation group, ovaries were not removed. 6 weeks after ovary removal, the mice were intraperitoneally injected with control peptide and peptide 114 at 10 mg/kg for continuous 3 months, and then sacrificed. For the distal femur, the left distal femur of each mouse was scanned ex vivo using a micro-CT system. Each segment of bone trabeculae was selected for segmentation, and subjected to 3D reconstruction. BMD was calculated.

[6] = 0 w, 4 weeks after modeling without drug injection, listed as 114 peptide
[7] = 12 w after injection, listed as 114 peptide

FITC-(Acp)-ADLTISHCAADVVRAYGRKKRRQRRR [peptide 114]
new bone formation volume [1]: better and higher and 101.99 mm^3 and 80.68 mm^3 and 79.08 mm^3 and 80.48 mm^3 and 76.48 mm^3 and 85.49 mm^3 | attachment loss (AL) [2, 6]: 9.5 (3×) and 9 and 12 (2×) | gingival recession (GR) [2, 6]: 2.5 (3×) and 1 (2×) and 0.5 and 3 and 4.5 | probing depth (PD) [2, 6]: 7.5 (3×) and 8.5 and 7 and 8 and 9 (2×) | attachment loss (AL) [2, 7]: significantly lower and 3 and 2.5 and 1.5 and 4 | gingival recession (GR) [2, 7]: significantly lower and 0.5 and 1 | probing depth (PD) [2, 7]: significantly lower and 2.5 and 2 and 0.5 and 1 and 3 | mesenchymal stem cells-mediated regeneration of periodontal tissue ([2]; CT imaging, bone volume analysis and clinical examination): promoted | restoration effect of soft tissues (intraoral images) ([2]; week 12 after injection, FIG. 14): better | probing depth (PD) ([2]; −4 w, before drug injection, FIG. 10, listed as 114 peptide): 1 (7×) and 2 | gingival recession (GR) ([2]; −4 w, before drug injection, FIG. 12): 0 | healing of defected palatal mucosa (observation) ([3]; compared to PBS group and control peptide group, FIG. 15): obviously healed | area of unhealed defected palatal mucosa ([3]; day 14): 5.782 and 7.254 and 8.231 and 5.52 and 6.401 | area of unhealed defected palatal mucosa ([3]; day 21): 2.259 and 0.3319 and 1.964 and 2.33 and 2.213 | area of the defect region (dorsal skin) ([4]; Day 0): 6226 and 6554 and 6917 and 5532 and 4700 | area of the defect region (dorsal skin) ([4]; Day 10): 1396 and 3701 and 2313 and 983 and 1816 | Healing rate (dorsal skin defect) ([4]; Day 10): 0.7758 and 0.4353 and 0.6656 and 0.8223 and 0.6136 | area of the defect region (dorsal skin) ([4]; Day 14): 681 (2×) and 722 and 486 and 715 | Healing rate (dorsal skin defect) ([4]; Day 14): 0.8906 and 0.8898 and 0.9015 and 0.9121 and 0.8479 | healing of defected dorsal skin (observation) ([4]; days 0 and 14, compared to PBS and control peptide groups, FIG. 17): significant healing | bone density (BMD) of femoral bone trabeculae [5]: significant up-regulation and 0.1440 and 0.1242 and 0.1416 and 0.1071 and 0.1137
